Data reported in the NIST ThermoML archive (doi:10.1021/je400332j).

Experiment: xn = mol fraction of the nth substance listed
Conditions: 101 kPa, Liquid; for viscosity: Concentric cylinders viscometry; for mass density: Vibrating tube method

CCCn1cc[n+](C)c1.F[B-](F)(F)F [1-propyl-3-methylimidazolium tetrafluoroborate] + CCn1cc[n+](C)c1.F[B-](F)(F)F
Conditions	mass density [kg/m3]	viscosity [mPa·s]
293.15 K, x2 = 0	1239.3	95.44
293.15 K, x2 = 0.1003	1243.5	88.85
293.15 K, x2 = 0.2001	1247.8	82.33
293.15 K, x2 = 0.2997	1251.7	76.28
293.15 K, x2 = 0.3999	1256.1	70.61
293.15 K, x2 = 0.4996	1260.6	65.46
293.15 K, x2 = 0.5991	1265	60.73
293.15 K, x2 = 0.6997	1269.7	56.34
293.15 K, x2 = 0.7999	1274.4	52.31
293.15 K, x2 = 0.8998	1279.2	48.61
298.15 K, x2 = 0	1235.7	74.04
298.15 K, x2 = 0.1003	1239.8	69.32
298.15 K, x2 = 0.2001	1244	64.62
298.15 K, x2 = 0.2997	1248	60.23
298.15 K, x2 = 0.3999	1252.4	56.1
298.15 K, x2 = 0.4996	1256.9	52.32
298.15 K, x2 = 0.5991	1261.3	48.83
298.15 K, x2 = 0.6997	1266	45.57
298.15 K, x2 = 0.7999	1270.6	42.59
298.15 K, x2 = 0.8998	1275.5	39.79
303.15 K, x2 = 0	1232	58.59
303.15 K, x2 = 0.1003	1236.2	55.12
303.15 K, x2 = 0.2001	1240.4	51.66
303.15 K, x2 = 0.2997	1244.3	48.42
303.15 K, x2 = 0.3999	1248.7	45.34
303.15 K, x2 = 0.4996	1253.2	42.52
303.15 K, x2 = 0.5991	1257.5	39.91
303.15 K, x2 = 0.6997	1262.1	37.45
303.15 K, x2 = 0.7999	1266.9	35.17
303.15 K, x2 = 0.8998	1271.7	33.06
308.15 K, x2 = 0	1228.3	47.16
308.15 K, x2 = 0.1003	1232.5	44.58
308.15 K, x2 = 0.2001	1236.6	41.98
308.15 K, x2 = 0.2997	1240.7	39.54
308.15 K, x2 = 0.3999	1245	37.21
308.15 K, x2 = 0.4996	1249.3	35.08
308.15 K, x2 = 0.5991	1253.8	33.08
308.15 K, x2 = 0.6997	1258.4	31.19
308.15 K, x2 = 0.7999	1263.1	29.45
308.15 K, x2 = 0.8998	1267.7	27.82
313.15 K, x2 = 0	1224.7	38.56
313.15 K, x2 = 0.1003	1228.8	36.6
313.15 K, x2 = 0.2001	1233	34.63
313.15 K, x2 = 0.2997	1237	32.76
313.15 K, x2 = 0.3999	1241.3	30.97
313.15 K, x2 = 0.4996	1245.6	29.33
313.15 K, x2 = 0.5991	1250.1	27.78
313.15 K, x2 = 0.6997	1254.6	26.3
313.15 K, x2 = 0.7999	1259.3	24.95
313.15 K, x2 = 0.8998	1264	23.67
318.15 K, x2 = 0	–	31.98
318.15 K, x2 = 0.1003	–	30.46
318.15 K, x2 = 0.2001	–	28.93
318.15 K, x2 = 0.2997	–	27.48
318.15 K, x2 = 0.3999	–	26.08
318.15 K, x2 = 0.4996	–	24.8
318.15 K, x2 = 0.5991	–	23.6
318.15 K, x2 = 0.6997	–	22.43
318.15 K, x2 = 0.7999	–	21.36
318.15 K, x2 = 0.8998	–	20.35
